Assays:
[1] = system: ICAM-1 on U937 cells; assay: ICAM-1 labeling of PMA-differentiated U937 macrophages, confocal laser scanning microscopy; assay type: cell-based, human; details: U937 monocytes exposed to 10^−8M PMA for 48 hours; monocytes alone stained weakly positive
Procedure: (§1) To obtain differentiated macrophages, U937 monocytes were exposed to 10^−8M PMA (originating from a 10^−3M stock in DMSO) (Sigma-Aldrich) for 48 hours. Exposure of monocytes to phorbol esters induces morphological, physiological and molecular characteristics of terminally differentiated macrophages (Rovera et al., 1979, Prieto et al., 1994). For CLSM staining purposes, monocytes were differentiated with PMA and A549 cells were grown in 6-well plates containing sterile coverslips. For CLSM staining of undifferentiated U937, cytodex-3 beads (5 mg/ml) were added to the culture medium, allowing adhesion of U937 to the beads and facilitation of the staining procedure.
The antibodies used for CLSM imaging in the present study were from mouse origin and targeted the human CD45 (Abcam), ICAM-1 (Abcam), MUC5AC (Invitrogen), ZO-1 (Invitrogen) and β-catenin (Chemicon). All primary antibodies were used in a dilution of 1:50. ICAM-1 was the only directly labeled antibody used for CLSM staining and was conjugated with phycoerythrin (PE). […]
Optical sections of the three-dimensional aggregates and monolayers were obtained using a Zeiss LSM 510 Duo laser scanning microscope equipped with detectors and filter sets for monitoring emissions of the selected fluorophores. Images were acquired using a Plan-Neofluar 40×/1.3 oil DIC objective and were analyzed with the Zeiss LSM software package. […]

[2] = system: U937 cells; assay: Phagocytosis of 2 μm fluorescent beads by PMA-differentiated U937 macrophages; assay type: cell-based, human; details: U937 monocytes exposed to 10^−8M PMA for 48 hours; undifferentiated monocytes could not phagocytose
Procedure: as §1
The phagocytosis activity of monocytes and macrophages cultured alone or co-cultured with A549 cells in three-dimensional was assessed based on the uptake of bacterial-sized 2 μm fluorescent […] beads (Fluoresbrite plain YG, Polysciences). The phagocytosis assay was performed as previously described (Gao et al., 2010).

Structure (SMILES): CCCCCCCCCCCCCC(=O)O[C@@H]1[C@@H](C)[C@@]2(O)[C@@H](C=C(CO)C[C@]3(O)C(=O)C(C)=C[C@@H]23)[C@@H]2C(C)(C)[C@]12OC(C)=O [PMA, phorbol 12-myristate 13-acetate]
- ICAM-1 labeling of differentiated macrophages [1]: strong ICAM-1 labeling
- phagocytosis of 2 μm fluorescent beads [2]: engulfment of one-to-multiple beads

From patent publication US20130344501A1, “METHODS FOR PRODUCING THREE-DIMENSIONAL PHYSIOLOGICALLY RELEVANT IMMUNE TISSUE SYSTEMS UNDER LOW FLUID SHEAR CONDITIONS” (priority 2010, published 2013)
